Measured values from EP3748362A1, “IN VITRO METHOD FOR DETECTING RENAL DISEASE” (Fundacion Instituto De Investigacion Sanitaria Fundacion …, priority 2019, dated 2020).

Key:
TRAF3 = TRAF3 western blot in TWEAK-stimulated HK2 cells; format: cell-based, Human; details: paricalcitol 15 umol/L 48 hours before TWEAK 100 ng/ml for 24 hours
Method: Human kidney proximal tubule epithelial cells (HK2 cell line, ATCC CRL-2190) were grown in RPMI 1640 with 10% fetal bovine serum (FBS), 1% glutamine, 100 U/ml penicillin, 100 µg/ml streptomycin, 5 µg/ml insulin-transferrin-selenite and 36 ng/ml hydrocortisone in 5% CO2 at 37° C. When cells reached 60 to 70% confluence, they were serum-depleted for 24 hours before the experiment.
Cells were stimulated with 100ng/ml recombinant human soluble TWEAK (Millipore) or p-200 µg/ml cresyl-sulfate (Raymond Vanholder and Griet Glorieux, University of Gent, Belgium). Concentrations of TWEAK and p-cresyl-sulfate were based on previously published dose-response experiments (Poveda et al. 2014; Sanz et al. 2008). […] DMSO, used as a solvent in some cases, had no effect on cell viability or on gene expression levels.
(§1) For western blot, cell (25 µg/lane) and kidney (100-150 µg/lane) protein extracts were separated on 6%-12% polyacrylamide-SDS gels under reducing conditions. […] Autoradiographs were scanned using the Gel Doc™ EZ imager and analyzed with the Image Lab 3.0 software (BioRad).

[1] = test system: TWEAK-induced renal inflammation; assay: TWEAK-induced renal inflammation in mice (immunohistochemistry, real time PCR, ELISA); format: in vivo, C57BL/6 mice; details: TWEAK-injected mice, paricalcitol 750 ng/kg/day or SN52 0.7 mg/mouse/day
Method: (§2) All animal procedures were performed according to the guidelines of animal research in the European Community and with prior approval by the Ethics Committee of the Health Research of the IIS-Fundacion Jiménez Díaz. For in vivo studies, mice received a daily intraperitoneal injection of the VDRA Paricalcitol starting 48 hours prior to induction of kidney damage.
At the time of sacrifice, animals were anesthetized with 5 mg/kg xylazine (Rompun, Bayer AG) and 35 mg/kg ketamine (Ketolar, Pfizer) and the kidneys perfused in situ with cold saline before removal. […]
Paraffin-embedded kidney sections (3 µm) were stained using conventional methods. […] For each sample (processed by duplicate in a blinded manner), the average value was obtained from the analysis of 4 fields (20X objective) as density/mm2 or percentage stained area vs total analyzed area. Data are expressed as fold increase over control mice, as mean ± SEM of 8-10 animals per group. […]
ELISA was used to evaluate levels of the chemokines CCL2 and CCL5 (eBioscience). In renal samples, total protein content was determined by the BCA method, and equal amounts of protein were analyzed. Data are expressed as n-fold increase over the mean of control levels.
Total RNA was isolated from cells and mouse kidney samples with Trizol (Invitrogen). […] The mRNA copy numbers were calculated for each sample by the instrument software using Ct value. […]

NF-κB1 = assay: Canonical NF-κB1 activation in obstructed kidneys (UUO) in mice; format: in vivo; details: paricalcitol-treated obstructed kidneys (UUO); 750 ng/kg/day
Method: as §2
At the time of sacrifice, animals were anesthetized with 5 mg/kg xylazine (Rompun, Bayer AG) and 35 mg/kg ketamine (Ketolar, Pfizer) and the kidneys perfused in situ with cold saline before removal. Then, kidney portions were fixed in formalin buffer for immunohistochemistry studies or immediately frozen in liquid nitrogen for gene and protein studies.
Unilateral ureteral obstruction (UUO) was established in male C57BL/6 mice, under isoflurane-induced anesthesia. […]
as §1

NF-κB1 activation, evaluated by IκB-α phosphorylation and p65/NF-κB DNA binding activity (NF-κB1): not modified
Compound: C[C@H](/C=C/[C@H](C)C(C)(C)O)[C@H]1CC[C@H]2/C(=C/C=C3C[C@@H](O)C[C@H](O)C3)CCC[C@]12C [paricalcitol]
TWEAK-induced TRAF3 protein levels (TRAF3): restored TWEAK-induced TRAF3 protein levels to values similar to control-untreated cells
proinflammatory factors, such as CCL2, CCL5 and IL-6 ([1]; kidney, real time PCR, ELISA): significantly decreased
infiltrating monocytes/macrophages (F4/80+ cells), T lymphocytes (CD3+ cells) ([1]; kidney immunohistochemistry): significantly decreased
